Biological target: T1, human GluR2 flip (unedited) AMPA receptor subunit (Homo sapiens, UniProt P42262)
T1 construct: expressed in transfected cells
Assay: Calcium influx fluorescence assay (FLUO4, FLIPR), potentiation of glutamate response
Assay type: cell-based
Conditions: HEK293; HEK 293 cells expressing human GluR2 flip (unedited); fluorescence increase relative to that induced by cyclothiazide at maximum response; read-out: activity relative to cyclothiazide (at its maximal response)
Method: The ability of the compounds of the invention to potentiate glutamate receptor-mediated response may be determined a) by using fluorescent calcium-indicator dyes such as FLUO4 and additionally b) by measuring glutamate-evoked current recorded from human GluR2 flip unedited HEK293 cells.
384 well plates are prepared containing confluent monolayer of HEK 293 cells either stably expressing or transiently transfected with human GluR2 flip (unedited) AMPA receptor subunit. These cells form functional homotetrameric AMPA receptors. The tissue culture medium in the wells are discarded and the wells are each washed three times with standard buffer (80 μL) for the stable cell line (145 mM NaCl, 5 mM KCl, 1 mM MgCl2, 2 mM CaCl2, 20 mM N-[2-hydroxyethyl]-piperazine-N-[2-ethanesulfonic acid (HEPES), 5.5 mM glucose, pH 7.3) or with a Na-free buffer for the transient transfected cells (145 mM N-methyl-glucamine instead of NaCl). The plates are then incubated for 60 minutes in the dark with 2 μM FLUO4-AM dye (20 μL) (Molecular Probes, Netherlands) at room temperature to allow cell uptake of the FLUO-4AM, which is then converted to FLUO-4 by intracellular esterases which is unable to leave the cell. After incubation each well is washed three times with buffer (80 μL) (30 μL of buffer remained in each well after washing).
Compounds of the invention (or reference compounds such as cyclothiazide) are dissolved in dimethylsulfoxide (DMSO) at a stock concentration of 10 mM. These solutions are further diluted with DMSO using a Biomek FX (Beckman Coulter) in a 384 compound plate. Each dilution (1 μL) is transferred to another compound plate and buffer (50 μL) is added. An agonist stimulus (glutamate) plate is prepared by dissolving sodium glutamate in water to give a concentration of 100 mM. This solution is diluted with buffer to give a final concentration of 500 μM and dispensed into another 384-well plate (50 μL/well) using a Multidrop (Thermolabsystems).
The cell plate is then transferred into a fluorescence imaging plate based reader [such as the FLIPR384 (Molecular Devices)]. A baseline fluorescence reading is taken over a 10 to 240 second period, and then 10 μL from each plate containing a compound of the invention made up in standard buffer solution (in a concentration range from 100 μM to 10 μM) is added (to give a final concentration in the range 30 μM to 3 μM). The fluorescence is read over 5 minute period. 500 μM glutamate solution (10 μL) is added (to give a final concentration of 100 μM). The fluorescence is then read over a 4 minute period. The activities of the compounds of the invention and reference compounds are determined by measuring peak fluorescence after the last addition. The activity is also expressed relative to the fluorescence increase induced by cyclothiazide at their maximum response (i.e. greater than 30 μM).
The assay described above is believed to have an effective limit of detection of a pEC50 in the region of 3.5-4.0 due to the limitations of compound solubility. The pEC50 result is generally considered to be accurate +/−0.3.

T1 sequence (P42262 25-883 isoform P42262-2 limits assumed): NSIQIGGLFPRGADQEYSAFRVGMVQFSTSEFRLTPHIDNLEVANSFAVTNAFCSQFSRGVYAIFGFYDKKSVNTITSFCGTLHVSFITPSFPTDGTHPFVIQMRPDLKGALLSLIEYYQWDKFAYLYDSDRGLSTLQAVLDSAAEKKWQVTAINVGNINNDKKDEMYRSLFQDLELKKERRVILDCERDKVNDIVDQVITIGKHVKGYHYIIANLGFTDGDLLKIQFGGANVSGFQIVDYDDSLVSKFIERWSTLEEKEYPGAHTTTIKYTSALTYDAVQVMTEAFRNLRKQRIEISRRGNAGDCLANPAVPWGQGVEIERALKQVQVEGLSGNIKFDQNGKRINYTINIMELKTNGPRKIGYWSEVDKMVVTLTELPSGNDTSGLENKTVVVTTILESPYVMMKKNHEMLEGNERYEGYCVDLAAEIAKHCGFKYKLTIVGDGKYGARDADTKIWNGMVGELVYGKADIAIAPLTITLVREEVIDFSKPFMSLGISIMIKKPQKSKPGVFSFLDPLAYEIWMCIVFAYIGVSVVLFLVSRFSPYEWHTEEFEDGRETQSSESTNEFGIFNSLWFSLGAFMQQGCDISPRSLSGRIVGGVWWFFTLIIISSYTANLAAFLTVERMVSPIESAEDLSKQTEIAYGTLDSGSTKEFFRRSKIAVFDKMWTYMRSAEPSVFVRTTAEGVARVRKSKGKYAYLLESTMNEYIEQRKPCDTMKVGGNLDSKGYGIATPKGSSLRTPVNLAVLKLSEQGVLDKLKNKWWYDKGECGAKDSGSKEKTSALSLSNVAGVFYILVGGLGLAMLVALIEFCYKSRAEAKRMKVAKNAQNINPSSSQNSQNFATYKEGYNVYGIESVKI

An Emax of at least 50% was found for CC(=O)c1cccc(-c2ccc([C@H]3COC[C@H]3NS(=O)(=O)C(C)C)cc2)c1 (racemic) [Example 9, N-[cis-4-(3′-acetyl-4-biphenylyl)tetrahydro-3-furanyl]-2-propanesulfonamide] in this work.
An Emax of at least 50% was found for CC(C)S(=O)(=O)N[C@@H]1COC[C@@H]1c1ccc(-c2ccc(F)cn2)cc1 (racemic) [Example 3, N-{cis-4-[4-(5-fluoro-2-pyridinyl)phenyl]tetrahydro-3-furanyl}-2-propanesulfonamide] in this work.
An Emax of at least 50% was found for CC(C)S(=O)(=O)N[C@@H]1COC[C@@H]1c1ccc(-c2ccsc2)cc1 (racemic) [Example 11, N-{cis-4-[4-(3-thienyl)phenyl]tetrahydro-3-furanyl}-2-propanesulfonamide] in this work.
An Emax of at least 50% was found for Cc1cncc(-c2ccc([C@H]3COC[C@H]3NS(=O)(=O)C(C)C)cc2)c1 (racemic) [Example 6, N-{cis-4-[4-(5-methyl-3-pyridinyl)phenyl]tetrahydro-3-furanyl}-2-propanesulfonamide] in this work.
An Emax of at least 50% was found for CC(C)S(=O)(=O)N[C@@H]1COC[C@@H]1c1ccc(-c2cccs2)cc1 (racemic) [Example 12, N-{cis-4-[4-(2-thienyl)phenyl]tetrahydro-3-furanyl}-2-propanesulfonamide] in this work.
An Emax of at least 50% was found for CC(C)S(=O)(=O)N[C@@H]1COC[C@@H]1c1ccc(-c2cncc(F)c2)cc1 (racemic) [Example 4, N-{cis-4-[4-(5-fluoro-3-pyridinyl)phenyl]tetrahydro-3-furanyl}-2-propanesulfonamide] in this work.
An Emax of at least 50% was found for CC(C)S(=O)(=O)N[C@@H]1COC[C@@H]1c1ccc(-c2ccc(F)nc2)cc1 (racemic) [Example 1, N-{cis-4-[4-(6-fluoro-3-pyridinyl)phenyl]tetrahydro-3-furanyl}-2-propanesulfonamide] in this work.
An Emax of at least 50% was found for Cc1ccc(-c2ccc([C@H]3COC[C@H]3NS(=O)(=O)C(C)C)cc2)cn1 (racemic) [Example 2, N-{cis-4-[4-(6-methyl-3-pyridinyl)phenyl]tetrahydro-3-furanyl}-2-propanesulfonamide] in this work.
An Emax of at least 50% was found for CC(C)S(=O)(=O)N[C@@H]1COC[C@@H]1c1ccc(-c2ccc(Cl)cn2)cc1 (racemic) [Example 5, N-{cis-4-[4-(5-chloro-2-pyridinyl)phenyl]tetrahydro-3-furanyl}-2-propanesulfonamide] in this work.
An Emax of at least 50% was found for CC(C)S(=O)(=O)N[C@@H]1COC[C@@H]1c1ccc(-c2ccc(C#N)cc2)cc1 (racemic) [Example 8, N-[cis-4-(4′-cyano-4-biphenylyl)tetrahydro-3-furanyl]-2-propanesulfonamide] in this work.
An Emax of at least 50% was found for CC(C)S(=O)(=O)N[C@@H]1COC[C@@H]1c1ccc(-c2ccc(F)cc2)cc1 (racemic) [Example 7, N-[cis-4-(4′-fluoro-4-biphenylyl)tetrahydro-3-furanyl]-2-propanesulfonamide] in this work.
An Emax of at least 50% was found for CC(C)S(=O)(=O)N[C@@H]1COC[C@@H]1c1ccc(-c2ccc3c(c2)OCO3)cc1 (racemic) [Example 10, N-{cis-4-[4-(1,3-benzodioxol-5-yl)phenyl]tetrahydro-3-furanyl}-2-propanesulfonamide] in this work.

Reference: patent US20090221643A1, “4-PHENYL-3-(2-PROPYLSULFONYLAMINO) TETRAHYDROFURAN DERIVATIVES WHICH POTENTIATE GLUTAMATE RECEPTORS AND ARE USEFUL IN THE TREATMENT OF SCHIZOPHRENIA” (priority 2006, published 2009)
